# Laboratory results taken from patent US9730944B2, “Antiviral activity of novel bicyclic heterocycles” (priority 2010, dated 2017).
# Where two headings read alike, the source gives them in different places.
# Tests used:
# [1] = system: HIV-1 strain IIIB; experiment: Inhibition of replication of HIV-1 (IIIB strain) in MT-4 cells, MTT assay; format: cell-based; conditions: Human immunodeficiency virus 1, IIIB, MT4, 120 h; MT-4 cells, MTT assay, five days after infection, 50% protection from cytopathic effect; read-out: EC50 (μM) HIV-1 (IIIB)
# [2] = system: HIV-2 strain (ROD); experiment: Inhibition of replication of HIV-2 (ROD strain) in MT-4 cells, MTT assay; format: cell-based; conditions: Human immunodeficiency virus 2, MT4, 120 h; MT-4 cells, MTT assay, five days after infection, 50% protection from cytopathic effect; read-out: EC50 (μM) HIV-2 (ROD)
# [3] = system: poliovirus (PV type 1); experiment: microbe, parasite or virus in culture; format: cell-based; conditions: Enterovirus C, read-out: PV-1 EC50
# [4] = system: poliovirus (PV type 2); experiment: microbe, parasite or virus in culture; format: cell-based; conditions: Enterovirus C, read-out: PV-2 EC50
# [5] = system: poliovirus (PV type 3); experiment: microbe, parasite or virus in culture; format: cell-based; conditions: Enterovirus C, read-out: PV-3 EC50
# [6] = in vitro; conditions: human
# [7] = in vitro; conditions: African green monkey, PV CC50
# [8] = in vitro; conditions: human, PV CC50
# [9] = system: genotype 1a H-77 replicon; experiment: HCV-1a replicon potency in RLuc-1 cells, bioluminescence; format: cell-based; conditions: for HCV-1a Replicon Selectivity Index: CC50/EC50, genotype 1a replicon; for EC50: Hepatitis C virus, 72 h, read-out: HCV-1a Replicon EC50 (μM)
# [10] = Cytotoxicity in HCV-1a replicon cells, Promega CellTiter-Glo cell viability assay
SMILES,EC50 [1] [µM],EC50 [2] [µM],EC50 ([3]; HeLa) [µg/mL],EC50 ([3]; Vero) [µg/mL],EC50 ([4]; HeLa) [µg/mL],EC50 ([4]; Vero) [µg/mL],EC50 ([5]; HeLa) [µg/mL],EC50 ([5]; Vero) [µg/mL],CC50 [6] [µM],CC50 [7] [µg/mL],CC50 [8] [µg/mL],HCV-1a Replicon Selectivity Index [9],EC50 [9] [µM],CC50 at 72 h [10] [µM]
"Cc1cccc(OCC(=O)N2CCN(c3nc(N)nc4sc(CCc5ccc(F)cc5)nc34)CC2)c1 [Example 53, 1-(4-(5-amino-2-(4-fluorophenethyl)thiazolo[5,4-d]pyrimidin-7-yl)piperazin-1-yl)-2-(m-tolyloxy)ethanone]",> 7.96,> 7.96,0.41,0.12,9.73,0.14,> 16.7,1.4,201,> 150,> 50,,,
"COCCN1CCN(c2nc(N)nc3oc(-c4ccc(F)cc4)nc23)CC1 [Example 192, 5-amino-2-(4-fluorophenyl)-7-[4-(2-methoxyethyl)-piperazin-1-yl]-oxazolo[5,4-d]pyrimidine]",,,> 50,> 50,> 50,≥ 50,> 50,> 50,,100,> 50,,,
"CCOC(=O)c1nc(N2CCN(C(=O)COc3ccc(Cl)cc3)CC2)c2cc(-c3ccc(F)cc3)sc2n1 [Example 353, ethyl 4-(4-(2-(4-chlorophenoxy)acetyl)piperazin-1-yl)-6-(4-fluorophenyl)thieno[2,3-d]pyrimidine-2-carboxylate]",> 68.5,> 68.5,> 50,> 50,≥ 50,≥ 50,> 50,> 50,68.5,> 150,41.3,,,
CC(C)S(=O)(=O)n1c(N)nc2ccc(/C(=N/O)c3ccccc3)cc21 [Enviroxime],,,0.13,0.11,0.041,0.04,0.12,1.03,,> 150,21.2,,,
"Nc1nc(N2CCN(C(=O)COc3ccc(Cl)cc3)CC2)c2cc(-c3ccc(F)cc3)sc2n1 [Example 326, 1-(4-(2-amino-6-(4-fluorophenyl)thieno[2,3-d]pyrimidin-4-yl)piperazin-1-yl)-2-(4-chlorophenoxy)ethanone]",> 27.7,4.84,0.13,0.037,0.051,0.023,0.13,0.17,27.7,102,35.2,,,
"Nc1nc(N2CCN(C(=O)COc3ccc(Cl)cc3)CC2)c2nc(C3CC3)oc2n1 [Example 185, 5-amino-2-cyclopropyl-7-[4-(4-chlorophenoxyacetyl)piperazin-1-yl]-oxazolo[5,4-d]pyrimidine]",,,0.4,2.17,≥ 50,5.48,> 50,> 50,,97.7,> 50,,,
"NC(=O)c1nc(N2CCN(C(=O)COc3ccc(Cl)cc3)CC2)c2cc(-c3ccc(F)cc3)sc2n1 [Example 355, 4-(4-(2-(4-chlorophenoxy)acetyl)piperazin-1-yl)-6-(4-fluorophenyl)thieno[2,3-d]pyrimidine-2-carboxamide]",> 150,> 150,> 50,> 50,≥ 50,≥ 50,> 50,> 50,150,117,> 50,,,
"CCOC(=O)Cc1nc(N2CCN(C(=O)COc3ccc(Cl)cc3)CC2)c2cc(-c3ccc(F)cc3)sc2n1 [Example 354, ethyl 2-(4-(4-(2-(4-chlorophenoxy)acetyl)piperazin-1-yl)-6-(4-fluorophenyl)thieno[2,3-d]pyrimidin-2-yl)acetate]",> 159,> 159,> 50,> 50,≥ 50,> 50,> 50,> 50,159,129,> 50,,,
"Cc1nc(N2CCN(C(=O)COc3ccc(Cl)cc3)CC2)c2cc(-c3ccc(F)cc3)sc2n1 [Example 325, 2-(4-chlorophenoxy)-1-(4-(6-(4-fluorophenyl)-2-methylthieno[2,3-d]pyrimidin-4-yl)piperazin-1-yl)ethanone]",> 208,> 208,> 50,> 50,≥ 50,> 50,> 50,> 50,208,67.8,> 50,,,
"COc1ccc(OCC(=O)N2CCN(c3ncnc4sc(CCc5ccc(F)cc5)nc34)CC2)cc1 [Example 302, 1-(4-(2-(4-fluorophenethyl)thiazolo[5,4-d]pyrimidin-7-yl)piperazin-1-yl)-2-(4-methoxyphenoxy)ethanone]",,,< 0.023,< 0.023,< 0.023,< 0.023,< 0.023,0.085,,50,> 50,,,
"CC(C)CN1CCN(c2nc(N)nc3oc(-c4ccc(F)cc4)nc23)CC1 [Example 190, 5-amino-2-(4-fluorophenyl)-7-(4-isobutylpiperazin-1-yl)-oxazolo[5,4-d]pyrimidine]",,,1.15,1.08,1.17,1.02,1.13,2.79,,130,32.3,,,
"O=C(COc1ccc(Cl)cc1)N1CCN(c2ncnc3sc(-c4ccc(F)cc4)cc23)CC1 [Example 312, 2-(4-chlorophenoxy)-1-(4-(6-(4-fluorophenyl)thieno[2,3-d]pyrimidin-4-yl)piperazin-1-yl)ethanone]",,,3.77,1.12,1.28,0.68,> 1.85,2.05,,116,> 50,,,
C[C@@]1(O)[C@H](O)[C@@H](CO)O[C@H]1n1ccc(N)nc1=O [2′-C-methylcytidine],,,3.74,3.58,7.27,4.6,11.4,15.3,,> 150,> 50,,,
"CCCCc1nc(N2CCN(C(=O)COc3ccc(Cl)cc3)CC2)c2cc(-c3ccc(F)cc3)sc2n1 [Example 313, 1-(4-(2-butyl-6-(4-fluorophenyl)thieno[2,3-d]pyrimidin-4-yl)piperazin-1-yl)-2-(4-chlorophenoxy)ethanone]",,,> 50,> 50,≥ 50,≥ 50,> 50,> 50,,> 150,> 50,,,
"CCCCCc1nc2c(N3CCN(C(=O)COc4ccc(Cl)cc4)CC3)nc(N)nc2o1 [Example 188, 5-amino-7-[4-(4-chlorophenoxyacetyl)piperazin-1-yl]-2-pentyloxazolo[5,4-d]pyrimidine]",,,0.38,0.14,0.36,0.11,0.48,0.32,,103,> 50,,,
"Nc1nc(N2CCN(c3ccc(Cl)cc3)CC2)c2nc(-c3ccc(F)cc3)[nH]c2n1 [Example 414, 6-(4-(4-chlorophenyl)piperazin-1-yl)-8-(4-fluorophenyl)-9H-purin-2-amine]",,,,,,,,,,,,1.2,7.3,8.7
"CC(=O)N1CCN(c2nc(N)nc3oc(-c4ccc(F)cc4)nc23)CC1 [Example 191, 5-amino-2-(4-fluorophenyl)-7-(4-acetylpiperazin-1-yl)-oxazolo[5,4-d]pyrimidine]",,,28.6,27.5,≥ 50,21.6,> 50,> 50,,112,> 50,,,
"CCC(c1ccc(F)cc1)c1nc2c(N3CCN(C(=O)COc4ccc(Cl)cc4)CC3)nc(N)nc2s1 (centres unmarked) [Example 150, 5-amino-2-[1-(4-fluorophenyl)propyl]-7-(4-[2-(4-chlorophenoxy)acetyl]piperazin-1-yl)thiazolo[5,4-d]pyrimidine]",,,,,,,,,,,,2.0,13.1,25.9
"Nc1nc(N2CCN(C(=O)Nc3ccc(Cl)cc3)CC2)c2cc(-c3ccccc3)sc2n1 [Example 331, 4-(2-amino-6-phenylthieno[2,3-d]pyrimidin-4-yl)-N-(4-chlorophenyl)piperazine-1-carboxamide]",,,,,,,,,,,,1.8,18.7,34.3
"Nc1nc(N2CCN(C(=O)CCc3ccccc3)CC2)c2nc(-c3ccc(F)cc3)[nH]c2n1 [Example 438, 1-(4-(2-amino-8-(4-fluorophenyl)-9H-purin-6-yl)piperazin-1-yl)-3-phenylpropan-1-one]",,,,,,,,,,,,0.6,10.3,6.1
